# Test system: 463943-066-T-J2-PDC complex spheroid growth
# Assay: Anticancer human tumor 463943-066-T-J2-PDC patient-derived colon adenocarcinoma cell line growth inhibition [Asc]
# Details: for IC50: curve of first compound; for viability, T/C: stronger effect = lower value
# In short: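 Stromal components (HUVEC and hMSC) are co-assembled with the cancer cells into multicellular spheroids. Drugs are then added singly or paired, at concentrations falling by half-log increments from a clinically achievable maximum, capped at 10 microM without known Cmax.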
# 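Further: compound exposure lasted 7 days.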
# 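Wherever viability, T/C is given: 100% = DMSO vehicle control wells.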
structure (smiles),measurement,setting,value
C=C(F)C(=O)N1CCN(c2nc(OCC3CCCN3C)nc3c2CCN(c2cccc4cccc(Cl)c24)C3)CC1CC#N (centres undefined) + Cc1c(S(C)(=O)=O)c(-c2cc(F)cc(N3CCN(c4ccc(NS(=O)(=O)c5ccc(NC(CCN6CCC(C(=O)OCCCP(=O)(O)O)CC6)CSc6ccccc6)c(S(=O)(=O)C(F)(F)F)c5)cc4)CC3)c2)c(-c2ccc(Cl)cc2)n1C(C)C,IC50,second compound 0.0316 µM,5.64 µM
same,IC50,second compound 0.1 µM,4.89 µM
same,IC50,second compound 0.316 µM,3.88 µM
same,IC50,second compound 1 µM,2.3 µM
same,IC50,second compound 3.16 µM,1.17 µM
same,IC50,second compound 10 µM,< 0.0316 µM
same,"viability, T/C","second compound 0.0316 µM, first compound 0.0316 µM",92.4%
same,"viability, T/C","second compound 0.0316 µM, first compound 0.1 µM",95.5%
same,"viability, T/C","second compound 0.0316 µM, first compound 0.316 µM",95.9%
same,"viability, T/C","second compound 0.0316 µM, first compound 1 µM",106%
same,"viability, T/C","second compound 0.0316 µM, first compound 3.16 µM",93.1%
same,"viability, T/C","second compound 0.0316 µM, first compound 10 µM",7.35%
same,"viability, T/C","second compound 0.1 µM, first compound 0.0316 µM",98.2%
same,"viability, T/C","second compound 0.1 µM, first compound 0.1 µM",93.5%
same,"viability, T/C","second compound 0.1 µM, first compound 0.316 µM",90.8%
same,"viability, T/C","second compound 0.1 µM, first compound 1 µM",98.4%
same,"viability, T/C","second compound 0.1 µM, first compound 3.16 µM",79.5%
same,"viability, T/C","second compound 0.1 µM, first compound 10 µM",1.47%
same,"viability, T/C","second compound 0.316 µM, first compound 0.0316 µM",92%
same,"viability, T/C","second compound 0.316 µM, first compound 0.1 µM",85.7%
same,"viability, T/C","second compound 0.316 µM, first compound 0.316 µM",87%
same,"viability, T/C","second compound 0.316 µM, first compound 1 µM",85.7%
same,"viability, T/C","second compound 0.316 µM, first compound 3.16 µM",60.8%
same,"viability, T/C","second compound 0.316 µM, first compound 10 µM",0.26%
same,"viability, T/C","second compound 1 µM, first compound 0.0316 µM",80.3%
same,"viability, T/C","second compound 1 µM, first compound 0.1 µM",80.4%
same,"viability, T/C","second compound 1 µM, first compound 0.316 µM",72.5%
same,"viability, T/C","second compound 1 µM, first compound 1 µM",72.4%
same,"viability, T/C","second compound 1 µM, first compound 3.16 µM",41.8%
same,"viability, T/C","second compound 1 µM, first compound 10 µM",0.2%
same,"viability, T/C","second compound 3.16 µM, first compound 0.0316 µM",62.4%
same,"viability, T/C","second compound 3.16 µM, first compound 0.1 µM",58.4%
same,"viability, T/C","second compound 3.16 µM, first compound 0.316 µM",56.4%
same,"viability, T/C","second compound 3.16 µM, first compound 1 µM",54.5%
same,"viability, T/C","second compound 3.16 µM, first compound 3.16 µM",23.1%
same,"viability, T/C","second compound 3.16 µM, first compound 10 µM",0.22%
same,"viability, T/C","second compound 10 µM, first compound 0.0316 µM",46.1%
same,"viability, T/C","second compound 10 µM, first compound 0.1 µM",47.7%
same,"viability, T/C","second compound 10 µM, first compound 0.316 µM",47.4%
same,"viability, T/C","second compound 10 µM, first compound 1 µM",41.7%
same,"viability, T/C","second compound 10 µM, first compound 3.16 µM",16.4%
same,"viability, T/C","second compound 10 µM, first compound 10 µM",0.26%
CCN1C(C(=O)NC23CCC(C(=O)O)(CC2)CC3)C(c2cccc(Cl)c2F)C2(C(=O)Nc3cc(Cl)ccc32)C12CCCCC2 (centres undefined) + Cc1c(S(C)(=O)=O)c(-c2cc(F)cc(N3CCN(c4ccc(NS(=O)(=O)c5ccc(NC(CCN6CCC(C(=O)OCCCP(=O)(O)O)CC6)CSc6ccccc6)c(S(=O)(=O)C(F)(F)F)c5)cc4)CC3)c2)c(-c2ccc(Cl)cc2)n1C(C)C,IC50,second compound 0.0316 µM,> 3 µM
same,IC50,second compound 0.1 µM,> 3 µM
same,IC50,second compound 0.316 µM,> 3 µM
same,IC50,second compound 1 µM,> 3 µM
same,IC50,second compound 3.16 µM,0.14 µM
same,IC50,second compound 10 µM,< 0.00949 µM
same,"viability, T/C","second compound 0.0316 µM, first compound 0.00949 µM",90.4%
same,"viability, T/C","second compound 0.0316 µM, first compound 0.03 µM",92.3%
same,"viability, T/C","second compound 0.0316 µM, first compound 0.0949 µM",89.3%
same,"viability, T/C","second compound 0.0316 µM, first compound 0.3 µM",76.5%
same,"viability, T/C","second compound 0.0316 µM, first compound 0.949 µM",70.2%
same,"viability, T/C","second compound 0.0316 µM, first compound 3 µM",61.8%
same,"viability, T/C","second compound 0.1 µM, first compound 0.00949 µM",88.9%
same,"viability, T/C","second compound 0.1 µM, first compound 0.03 µM",83.2%
same,"viability, T/C","second compound 0.1 µM, first compound 0.0949 µM",85.9%
same,"viability, T/C","second compound 0.1 µM, first compound 0.3 µM",73.3%
same,"viability, T/C","second compound 0.1 µM, first compound 0.949 µM",71.1%
same,"viability, T/C","second compound 0.1 µM, first compound 3 µM",60.8%
same,"viability, T/C","second compound 0.316 µM, first compound 0.00949 µM",80.6%
same,"viability, T/C","second compound 0.316 µM, first compound 0.03 µM",92.2%
same,"viability, T/C","second compound 0.316 µM, first compound 0.0949 µM",77.6%
same,"viability, T/C","second compound 0.316 µM, first compound 0.3 µM",71.4%
same,"viability, T/C","second compound 0.316 µM, first compound 0.949 µM",64.7%
same,"viability, T/C","second compound 0.316 µM, first compound 3 µM",57.2%
same,"viability, T/C","second compound 1 µM, first compound 0.00949 µM",70.1%
same,"viability, T/C","second compound 1 µM, first compound 0.03 µM",70.8%
same,"viability, T/C","second compound 1 µM, first compound 0.0949 µM",62.9%
same,"viability, T/C","second compound 1 µM, first compound 0.3 µM",58.4%
same,"viability, T/C","second compound 1 µM, first compound 0.949 µM",62%
same,"viability, T/C","second compound 1 µM, first compound 3 µM",51.2%
same,"viability, T/C","second compound 3.16 µM, first compound 0.00949 µM",55.8%
same,"viability, T/C","second compound 3.16 µM, first compound 0.03 µM",54.5%
same,"viability, T/C","second compound 3.16 µM, first compound 0.0949 µM",49.3%
same,"viability, T/C","second compound 3.16 µM, first compound 0.3 µM",48.2%
same,"viability, T/C","second compound 3.16 µM, first compound 0.949 µM",45.5%
same,"viability, T/C","second compound 3.16 µM, first compound 3 µM",39.4%
same,"viability, T/C","second compound 10 µM, first compound 0.00949 µM",46.7%
same,"viability, T/C","second compound 10 µM, first compound 0.03 µM",43.7%
same,"viability, T/C","second compound 10 µM, first compound 0.0949 µM",39.8%
same,"viability, T/C","second compound 10 µM, first compound 0.3 µM",34.8%
same,"viability, T/C","second compound 10 µM, first compound 0.949 µM",61.4%
same,"viability, T/C","second compound 10 µM, first compound 3 µM",34.5%

# From PubChem BioAssay AID1963422 (Molecular Pharmacology Branch, DTP, NCI, 2024)
